Results published in patent US12065438B2, “Substituted tricyclic compounds as indoleamine 2,3-dioxygenase inhibitors” (Merck Sharp & Dohme LLC, priority 2019, dated 2024).

Columns and labels:
IDO1 [1] = target: T1, IDO1 (Homo sapiens, UniProt P14902); experiment: IDO1 Human Whole Blood Assay; assay type: cell-based; conditions: LPS and IFNγ 100 ng/mL, overnight (18 h), kynurenine by LC/MS/MS
Procedure: IDO1 Human Whole Blood Assay
Compounds to be tested were serially diluted in ten 3-fold steps in DMSO starting from 10 mM. 3 μL of compound dilutions or DMSO alone were then dispensed from the dilution plate into a polypropylene 96-well assay plate containing 97 μL of RPMI medium using an Echo 555 acoustic liquid handler (Labcyte). LPS and IFNγ was prepared in RPMI medium to a 10× of final conc. (1000 ng/mL), final concentration is 100 ng/mL.
240 μL of blood was transferred to each of the wells of a v-bottom 96 well plate. 30 μL of compound was transferred from intermediate dilution plate, and incubated for 15 min. 30 μL from stimulants was then transferred to blood and mixed thoroughly. Plate was covered with breathable membrane and incubated at 37° C. for overnight (18 h).
On day 2, isotope labeled standard solutions of kynurenine and tryptophan was made in water at 10× concentration and 30 μL was added to the blood at 3 μM final concentration. The assay plates were centrifuged at 300×G for 10 min with no brake to separate plasma from red blood cells. 60 μL of plasma samples was removed without disturbing red blood cells. Plasma was diluted with RPMI in 1:1 ratio and proteins were precipitated out with two volumes of Acetonitrile. The plates were centrifuged at 4000×G for 60 min. 20 μL of supernatant was carefully transferred to a 384 well plate containing 40 μL of 0.1% formic acid in water and analyzed by LC/MS/MS.
LC/MS/MS analyses were performed using Thermo Fisher's LX4-TSQ Quantum Ultra system. This system consists of four Agilent binary high-performance liquid chromatography (HPLC) pumps and a TSQ Quantum Ultra triple quadrupole MS/MS instrument. For each sample, 5 μL were injected onto an Atlantis T3 column (2.1 mm×150 mm, 3 μm particle size) from Waters. The mobile phase gradient pumped at 0.8 mL/min was used to elute the analytes from the column at 25° C. The elution started at 0% B increasing linearly to 25% B at 6.5 min, holding at 25% for 1 min, re-equilibrating to 10 min. Mobile phase A consisted of 0.1% formic acid in water. Mobile phase B consisted of 0.1% of formic acid in acetonitrile. Data were acquired in positive mode using a HESI interface. The operational parameters for the TSQ Quantum Ultra instrument were a spray voltage of 4000 V, capillary temperature of 380° C., vaporizer temperature 400° C., shealth gas 60 arbitrary units, Aux gas 20 arbitrary units, tube lens 85 and collision gas 1.2 mTorr. SRM chromatograms of kynurenine (Q1: 209.2>Q3:94.0) and internal standard (Q1: 215.3>Q3:98.2) were collected for 90 sec. The peak area was integrated by Xcalibur Quan software. The ratios between the kynurenine generated in the reaction and 2D6-Kynurenine spiked-in internal standard were used to generate percentage inhibition and IC50 values. Compounds were titrated and IC50's were calculated by 4 parameter sigmoidal curve fitting formula.

IDO1 [2] = target: T1, IDO1; experiment: IDO1 Cellular Assay in HeLa Cells Stimulated with IFNγ; assay type: cell-based; set-up: endogenous in cells; host or cells: HeLa cells stimulated with IFNγ; conditions: HeLa cells stimulated with IFNγ 100 ng/mL, 300 uM L-tryptophan, about 48 hours, fluorescence readout; read-out: IDO1 HELA Cell Assay, IC50
Procedure: Biological Assays IDO1 Cellular Assay in HeLa Cells Stimulated with IFNγ HeLa cells were cultured in complete HeLa culture medium (90% EMEM, 10% heat-inactivated fetal bovine serum) and expanded to about 1×10^9 cells. The cells were then collected and frozen down at 1×10^7 cells/vial in 1 mL frozen medium (90% complete HeLa culture medium, 10% DMSO). Compounds to be tested were serially diluted in ten 3-fold steps in DMSO starting from 10 mM DMSO stocks in Echo low volume plate(s). Compound dilutions or DMSO alone were then dispensed from the dilution plate(s) into Greiner black 384-well assay plate(s) (catalog #781086, 50 nL/well) using an Echo 550 acoustic liquid handler (Labcyte). Frozen HeLa cells were thawed and transferred into HeLa assay medium (99% complete HeLa culture medium, 1% Pen/Strep) with 20 mL medium/vial of cells. The cells were spun down at 250 g in a table top centrifuge for 5 min and suspended in same volume of HeLa assay medium. The cells were then counted and adjusted to a density of 2×10^5 cells/mL in HeLa assay medium. Sterile L-tryptophan were added to the cells with final concentration of 300 uM L-tryptophan. A small aliquot (2 mL/plate) of HeLa cells were set aside and were not treated with IFNγ, to serve as the Max-E control. The rest of HeLa cells were added with sterile IFNγ (Cat #285-IF, R & D systems) with a final concentration of 100 ng/mL. HeLa cells with and without IFNγ were dispensed to the respective wells of 384-well assay plates containing the compounds. The plates were incubated for about 48 hours at a 37° C., 5% CO2 incubator. Afterwards, 12 μL of 0.5 M methyl isonipecotate in dimethyl sulfoxide were added into each well and the plates were sealed and incubated at 37° C. without CO2 overnight. The plates were centrifuged for 1 min at 200×g. The resulting fluorescence was measured in a Spectramax plate reader (Molecular Devices) with a 400 nm excitation filter and a 510 nm emission filter. The fluorescence intensity of each well was corrected for the background observed in wells with non-IFNγ-treated cells and was expressed as a fraction of the intensity observed in wells of IFNγ-treated cells and DMSO only. Potencies were calculated by […] least squares fit to the four parameter logistic IC50 equation.

T1 sequence (P14902 whole entry): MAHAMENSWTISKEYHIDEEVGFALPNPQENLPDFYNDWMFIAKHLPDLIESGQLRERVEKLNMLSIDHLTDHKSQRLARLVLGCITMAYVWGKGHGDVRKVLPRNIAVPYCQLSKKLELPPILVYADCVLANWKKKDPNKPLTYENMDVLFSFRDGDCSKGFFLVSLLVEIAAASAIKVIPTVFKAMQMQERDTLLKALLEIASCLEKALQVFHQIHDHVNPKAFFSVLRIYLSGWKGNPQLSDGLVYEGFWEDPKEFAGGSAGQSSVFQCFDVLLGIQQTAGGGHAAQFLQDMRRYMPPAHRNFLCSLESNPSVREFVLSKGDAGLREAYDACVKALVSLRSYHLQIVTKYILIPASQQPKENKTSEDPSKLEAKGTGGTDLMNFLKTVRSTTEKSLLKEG

Compound	IC50 (IDO1 [1]) [nM]	IC50 (IDO1 [2]) [nM]
O=C(NC1(c2ccc3c(n2)[C@@H]2C[C@@H]2CN3C(=O)OC2CC2)CC1)c1ccc(F)cc1 (single isomer, unassigned) [Example 21]	946	6.03
O=C(NC1(c2ccc3c(n2)C2CC2CN3c2ccnc(CO)n2)CC1)c1ccc(F)cc1 (stereo not drawn) [Example 19, 4-fluoro-N-(1-(5-(2-(hydroxymethyl)pyrimidin-4-yl)-6,6a,7,7a-tetrahydro-5H-cyclopropa[c][1,5]naphthyridin-2-yl)cyclopropyl)benzamide]	151	11
O=C(C1CC1)N1CC2CC2c2cc(C3(C(=O)Nc4ccc(F)cc4)CCC3)ccc21 (single isomer, unassigned) [Example 4, 1-(3-(cyclopropanecarbonyl)-1a,2,3,7b-tetrahydro-1H-cyclopropa[c]quinolin-6-yl)-N-(4-fluorophenyl)cyclobutanecarboxamide]	37	2.92
4-fluoro-N-(2-((6aS,7aR)-5-(2-methylpyrimidin-4-yl)-6,6a,7,7a-tetrahydro-5H-cyclopropa[c][1,5]naphthyridin-2-yl)propan-2-yl)benzamide [Example 30]	126	6.6
O=C(NC1(c2ccc3c(n2)C2CC2CN3c2ccnc(C3CC3)n2)CC1)c1ccc(F)cc1 (stereo not drawn) [Example 15, N-(1-(5-(2-cyclopropyl-pyrimidin-4-yl)-6,6a,7,7a-tetrahydro-5H-cyclo-propa[c][1,5]naphthyridin-2-yl)cyclopropyl)-4-fluorobenzamide]	50	4.4
CCC(NC(=O)c1ccc(F)cc1)c1ccc2c(n1)C1CC1CN2C(=O)OC1CC1 (single isomer, unassigned) [Example 37, cyclopropyl 2-(1-(4-fluorobenzamido)propyl)-6,6a,7,7a-tetrahydro-5H-cyclopropa[c][1,5]naphthyridine-5-carboxylate]	54	2.83
CC(C)(NC(=O)c1ccc(F)cc1)c1ccc2c(n1)C1CC1CN2C(=O)C(F)(F)F (stereo not drawn) [Example 35, 2-(2-(4-fluorobenzamido)propan-2-yl)-5-(2,2,2-trifluoroacetyl)-6,6a,7,7a-tetrahydro-5H-cyclopropa[c][1,5]naphthyridin-1-ium]	778	1300
CC(C)(NC(=O)c1ccc(F)cc1)c1ccc2c(n1)[C@@H]1C[C@@H]1CN2C(=O)OC1CC1 (single isomer, unassigned) [Example 33]	465	4.05
CCc1nccc(N2CC3CC3c3nc(C4(NC(=O)c5ccc(F)cc5)CC4)ccc32)n1 (stereo not drawn) [Example 14, N-(1-(5-(2-ethylpyrimidin-4-yl)-6,6a,7,7a-tetrahydro-5H-cyclopropa[c][1,5]-naphthyridin-2-yl)cyclo-propyl)-4-fluorobenzamide]	105	3.5
C[C@@H](NC(=O)c1ccc(F)cc1)c1ccc2c(n1)[C@@H]1C[C@@H]1CN2C(=O)OC1CC1 [Example 27, cyclopropyl (6aS,7aR)-2-((R)-1-(4-fluorobenzamido)-ethyl)-6,6a,7,7a-tetrahydro-5H-cyclopropa[c][1,5]-naphthyridine-5-carboxylate]	463	3.23
CC(C)(O)c1nccc(N2CC3CC3c3nc(C4(NC(=O)c5ccc(F)cc5)CC4)ccc32)n1 (stereo not drawn) [Example 18, 4-fluoro-N-(1-(5-(2-(2-hydroxypropan-2-yl)pyrimidin-4-yl)-6,6a,7,7a-tetrahydro-5H-cyclopropa[c][1,5]naphthyridin-2-yl)cyclopropyl)benzamide]	248	12
O=C(NC1(c2ccc3c(n2)C2CC2CN3c2ccnc(C3CC3)n2)CC1)c1ccc(F)cc1 (stereo not drawn) [Example 16, N-(1-(5-(2-cyclopropyl-pyrimidin-4-yl)-6,6a,7,7a-tetrahydro-5H-cyclo-propa[c][1,5]naphthyridin-2-yl)cyclopropyl)-4-fluorobenzamide]	32	2.6
CC(C)(NC(=O)c1ccc(F)cc1)c1ccc2c(n1)C1CC1CN2C(=O)OC1CC1 (single isomer, unassigned) [Example 32, cyclopropyl 2-(2-(4-fluorobenzamido)propan-2-yl)-6,6a,7,7a-tetrahydro-5H-cyclopropa[c][1,5]naphthyridine-5-carboxylate]	778	7.56
Cc1nccc(N2c3ccc(C4(NC(=O)c5ccc(F)cc5)CC4)cc3C3CC32)n1 (single isomer, unassigned) [Example 8, 4-fluoro-N-(1-(2-(2-methylpyrimidin-4-yl)-1,1a,2,6b-tetrahydrocyclopropa[b]indol-5-yl)cyclopropyl)benzamide]		2.91
